Here are results for 86 compounds from a melting point compilation (Tetko et al.; mined from patent text by program, amines drawn as free bases though some values may be those of a salt).

As to `CCn1c(=O)n(CCCCC(C)(O)CC)c(=O)c2c1ncn2Cc1ccccc1` (stereo unspecified), the melting point (commonly the temperature, or range, at which the solid turns liquid) fell in the range of 93 to 94 °C.

As for `COc1nc2ccccn2c(=O)c1-c1ccc(Cl)cc1`, the melting point lay in the range of 149 to 151 °C.

`COC(=O)[C@@H]1Cc2ccccc2N1c1ccc(Cl)nn1` gave a melting point of 133 to 134 °C.

For the compound `O=C(O)CNC1CCc2ccccc21` (stereo unspecified), the melting point is 184 to 186 °C.

`COc1cc(C=CC(=O)c2ccc(I)cc2O)cc(OC)c1OC`: the melting point fell in the range of 140 to 141 °C.

Compound `c1ccc(CN2CCC3(CC2)OCCCO3)cc1` came in with a melting point of under 50 °C.

Compound `COc1ccc(-c2cc(Cl)cc3c2N(C)C(CN)CO3)c(C)c1` (stereo unspecified) displayed a melting point of 106 °C.

`O=C1CC(c2ccccc2)c2cc(C(=O)c3ccc(Cl)cc3)ccc2N1` (stereo unspecified) returned a melting point of 204 °C.

`CC(=O)N1CCc2c(sc3nc4ccccc4n23)C1` yielded a melting point of 181 to 186 °C.

Compound `NC12CCCC(C1)C1CCC2C1` (stereo unspecified) yielded a melting point of 111 to 113 °C.

`CCOCC1OC(n2c(Cl)nc3cc(Cl)c(Cl)cc32)C(O)C1O` (stereo unspecified) came in with a melting point of 88 to 90 °C.

`Cc1ccc(/C=C/C2=CCN(Cc3c[nH]c4ncccc34)CC2)cc1`: the melting point lay within 209 to 212 °C.

`CC(C)n1nc(-c2sc(NC(=O)c3ccc(CNCCCN(C)C)cc3)nc2-c2ccccc2)ccc1=O` showed a melting point of 108 to 110 °C.

With `O=S(=O)(c1ccc(S(=O)(=O)C2CCCCC2)nc1)C1CCCCC1`, the melting point came to 213 °C.

With `O=C1COc2cc(S(=O)(=O)c3ccccc3)ccc2N1CC1=NCCN1`, the melting point is 114 to 116 °C.

`CC1=CC(=O)CC(C)(C)C1(O)/C=C/C(C)=C\C=O` (stereo unspecified) came in with a melting point of 111 to 113 °C.

As for `ON=C(Cl)c1ccc(F)cc1`, the melting point was in the range of 74.5 to 75 °C.

The compound `COc1cc(C(=O)NS(=O)(=O)c2ccccc2C)ccc1Cc1cn(C)c2ccc(CCNC(=O)N3CCOCC3)cc12` displayed a melting point of 125 to 133 °C.

Compound `CCc1cc(=O)oc2cc(O)cc(O)c12` gave a melting point of 241 to 243 °C.

With `COC(=O)c1c(-c2ccccc2)oc2c(CCl)cccc2c1=O`, the melting point came to 150 °C.

`COc1ccc2sc(C(=O)OCc3ccccc3)c(OCc3ccccc3)c2c1` came in with a melting point of 66 to 67 °C.

With `CN1C(=O)Nc2ccccc2C12NC(=O)NC2=O` (stereo unspecified), the melting point is over 280 °C.

For `CC1=C(Cc2ccc(NC(=O)OC(C)(C)C)cc2)C(=O)C2C=CC=CC2C1=O` (stereo unspecified), the melting point fell in the range of 148 to 149 °C.

The compound `CC(C)CCCC(C)C1CCC2(C#N)C3C(O)CC4C(C)(C)C(OC(=O)c5ccccc5)CCC4(C)C3CCC12C` (stereo unspecified) returned a melting point of 270 to 271 °C.

For the compound `Cc1ccc2cccc(OCc3c(C)ccc(N(C)C(=O)CN4C(=O)c5ccccc5C4=O)c3C)c2n1`, the melting point fell in the range of 102 to 110 °C.

`CC(=O)Nc1nc(C)c(CCN2CCN(C(c3ccccc3)c3ccccc3)CC2)s1` returned a melting point of 166 to 168 °C.

In the case of `OC[C@@H](O)[C@@H](O)[C@H](O)[C@@H](O)CNC1CCCCC1`, the melting point fell in the range of 144 to 146 °C.

`O=CN(O)C(CS(=O)(=O)c1ccc(-c2ccc(C(F)(F)F)cc2)cc1)c1ccc2c(c1)OCO2` (stereo unspecified) came in with a melting point of 160 °C.

Regarding `CN(C1=CC(=O)C(=O)c2ccccc21)C1CCCCC1`, the melting point was 168 to 170 °C.

`CC(=O)c1cc(OCC2CO2)ccc1OCc1ccccc1` (stereo unspecified) displayed a melting point of 45 to 48 °C.

`COc1cc(CC(=O)NCCCc2ccc(C)c(C)c2)ccc1OCCNC(=O)c1ccccc1OC(C)=O` showed a melting point of 135 to 137 °C.

In turn, `CN1C(=O)N(c2cc(Cl)cc(Cl)c2)C(=O)[C@]12CN(C1CC1)C[C@H]2c1ccc(C#N)cc1` (relative stereo) gave a melting point of 216 °C.

For the compound `COc1cccc(C(=C/C=C/C(=O)Oc2ccc([N+](=O)[O-])cc2)c2cccc(OC)c2)c1`, the melting point fell in the range of 95 to 97 °C.

In turn, `Cc1cnc(N)cc1C(c1cc(F)ccc1F)S(=O)(=O)c1ccc(Cl)cc1` (stereo unspecified) showed a melting point of 188 to 189 °C.

On to `CCOC(=O)c1cc([N+](=O)[O-])cn1CCC(C)C`, for which the melting point was 46 to 47 °C.

Compound `CC(C)c1nn(-c2ccc(C#N)cn2)cc1CCCO` returned a melting point of 105 to 106 °C.

In turn, `OC(CN1CC=C(c2ccccc2)CC1)c1ccc(Cc2ccc(Cl)cc2)cc1` (stereo unspecified) showed a melting point of 135 to 137 °C.

The compound `COCCC(=O)OC1(C(=O)CO)CCC2C3CCC4=CC(=O)CCC4(C)C3C(O)CC21C` (stereo unspecified) gave a melting point of 172 °C.

`NC=C1Cc2ccccc2C1=O` had a melting point of 163 to 165 °C.

The compound `Cc1cc(Cl)ccc1NC(=S)Nc1ncccc1OCc1c(F)cccc1Cl` registered a melting point of 176 to 177 °C.

For `C=CCSC[C@H](NC(=O)OC(C)(C)C)C(=O)OC`, the melting point lay in the range of 37 to 38 °C.

Compound `CCCCc1ncc(/C=C(\Cc2cccs2)C(=O)O)n1Cc1ccccc1OC` yielded a melting point of 186 to 187 °C.

As to `CCOC(=O)C1=C(C)N(C)C(C)=C(C(=O)OC)C1c1ccccc1C#N` (stereo unspecified), the melting point came to 175 °C.

In the case of `COC(OC)c1c(SC(F)(F)F)c(C#N)nn1-c1c(Cl)cc(C(F)(F)F)cc1Cl`, the melting point was 93 °C.

`CC(C)(C)C(=O)Oc1ccc(-c2nnn(C(C(=O)NCC(=O)O)c3ccccc3)n2)cc1` (stereo unspecified): the melting point fell in the range of 86 to 93 °C.

For `CC1(C)CCC(C)(C)c2cc(-c3cc(-c4ccc(C(=O)N5CCOCC5)cc4)ccc3-c3ccccc3)ccc21`, the melting point was determined as 223 °C.

As for `COc1ccc(N2CCN(c3ccc(NC(=O)Oc4ccccc4)cn3)CC2)cc1`, the melting point was in the range of 197 to 198 °C.

Compound `Clc1ccccc1-c1cccc2c1OC(CNCC1CC1)CO2` (stereo unspecified) came in with a melting point of 138 to 140 °C.

Regarding `Cc1nn2c(C(F)(F)F)cc(-c3ccc(C(F)(F)F)cc3)nc2c1C#N`, the melting point was 184 °C.

The compound `O=C1Nc2ccc(Cl)cc2C1(O)c1ccccc1C(F)(F)F` (stereo unspecified) displayed a melting point of 205 to 208 °C.

`C=CCOC1C(OC2C(COCc3ccccc3)OC(OC)C(OCc3ccccc3)C2OCc2ccccc2)OC(CO)C(O)C1OCc1ccccc1` (stereo unspecified) came in with a melting point of 119 to 120 °C.

In the case of `CCOC(=O)Cc1ccc(NC(=O)Nc2ccccc2Br)c(OC)n1`, the melting point was in the range of 160 to 163 °C.

For `Cn1nc(OC2c3cc(C#N)ccc3OC(C)(C)C2(C)O)ccc1=O` (stereo unspecified), the melting point lay in the range of 197 to 199 °C.

In turn, `CCc1ccc(/C=C/c2nc(COc3ccc(CCCCn4ccnc4CCO)cc3)co2)cc1` had a melting point of 94 to 95 °C.

In turn, `COc1ccc2nc(SCc3nccc(OCC(F)(F)F)c3OC)[nH]c2c1` gave a melting point of 149 to 150 °C.

Regarding `CSC(=NC(=O)c1cccc(Br)c1)NC(=O)c1ccccc1`, the melting point lay within 145 to 146 °C.

Compound `CN(C(=O)COc1nc2c(F)cccc2s1)c1ccccc1` had a melting point of 94 °C.

`CCNC(=O)c1ncn2c1CN=C(c1ccccc1Br)c1cc(F)ccc1-2` came in with a melting point of 218 to 220 °C.

Compound `NC(=O)c1ncccc1CCc1cccc(F)c1` showed a melting point of 102 to 104 °C.

Compound `CC(=O)Nc1cc(C(F)(F)F)no1` yielded a melting point of 108 to 110 °C.

`CCCN(C(=O)CCl)[C@@H]1CCc2cc3c(cc2[C@H]1O)OCC3` (relative stereo) gave a melting point of 65 to 70 °C.

`COC(=O)C[C@]1(C)[C@@H](O)CC[C@H]1C1CCc2cc(OC)ccc2C1` (stereo partly specified) gave a melting point of 86 to 87 °C.

With `CCOC(=O)c1sc(C(=O)OCC)c2c1OC=CCO2`, the melting point fell in the range of 198 to 200 °C.

On to `COC(=O)C1=C2CCC(c3ccccc3)CN2CCC1=O` (stereo unspecified), for which the melting point lay in the range of 150 to 151 °C.

In turn, `C=CCOC(=O)Cc1cccc(NC(=O)NCC(=O)N(CC(=O)OC(C)(C)C)c2ccccc2C(=O)c2ccccc2)c1` showed a melting point of 122 to 124 °C.

In turn, `CC=CCNc1cc(C(=O)O)cc(S(N)(=O)=O)c1Oc1ccc(NC(C)=O)cc1` showed a melting point of 255 to 257 °C.

Compound `COc1ccc(C(=O)OC(=C2C(=O)N(C(N)=O)c3cc(Cl)c(F)cc32)c2cccs2)cc1` gave a melting point of 220 to 221 °C.

Compound `CC(C)(C)OC(=O)C(C)(C)N1COC(CF)=C(c2ccccc2)C1=O` gave a melting point of 80.5 to 82.5 °C.

`Nc1ccc(Sc2ccccc2)cc1F` had a melting point of 48 to 49 °C.

`O=C(CCl)Nc1ccc2c(c1NC(=O)c1ccno1)C(=O)c1ccccc1C2=O` came in with a melting point of 212 to 213 °C.

For the compound `Cc1ccc(C(=O)NC(NC(=S)Nc2cccnc2)c2ccccc2)cc1` (stereo unspecified), the melting point was in the range of 156 to 158 °C.

Compound `CCc1ccc2nn(-c3cc(C)ccc3O)nc2c1` returned a melting point of 91 to 91.5 °C.

As to `Cc1nc(CN(C(=O)CCl)c2c(C)cccc2C)cs1`, the melting point lay within 62 to 64 °C.

In turn, `N#Cc1cnn2c1NCCC2c1cccc(C(F)(F)F)c1` (stereo unspecified) displayed a melting point of 192 to 194 °C.

Consider `CN1C(=O)C(c2ccc(OC(F)F)cc2)(c2ccc(F)c(CCCC#N)c2)N=C1N` (stereo unspecified), for which the melting point lay within 65 to 70 °C.

Turning to `CC(=O)c1ccc2nc(-n3ccnc3)nc(NCCOCCO)c2c1`, the melting point is 164 to 166 °C.

In turn, `c1ccc2[nH]c(CCC(CCCc3[nH]c4ccccc4c3CCN3CCCCC3)CCN3CCCCC3)cc2c1` (stereo unspecified) registered a melting point of 79 to 83 °C.

`Cc1cc(C)c(Nc2nc(C)ccc2S(=O)(=O)c2ccc(OCc3ccc(C#N)cc3)cc2)c(C)c1`: the melting point lay within 208 to 210 °C.

With `CC(=O)C(C)N(C(=O)CCl)c1c(C)cccc1C` (stereo unspecified), the melting point lay in the range of 78 to 82 °C.

Compound `Cc1oc(-c2ccccc2)nc1CCc1nc(COc2ccccc2CC(=O)O)cs1` gave a melting point of 152 to 153 °C.

For `Nc1nc2ccc3ccc(CNc4ccc([N+](=O)[O-])cc4)cc3c2c(=O)[nH]1`, the melting point is over 230 °C.

`CCCCCCc1c(C(C)C)nc(C(C)C)c(CO)c1-c1ccccc1` came in with a melting point of 71 to 72 °C.

In the case of `O=C(O)C1=Cc2cc(I)ccc2NC1C(F)(F)F` (stereo unspecified), the melting point is 188 to 192 °C.

Compound `CCCCCCCCCCCCCCCC(=O)Nc1cscc1NC(=O)CCCCCCCCCCCCCCC` came in with a melting point of 107 to 109 °C.

On to `COc1ccc2c(Cc3ccc(OC4CCCCC4N(C)C)cc3)c(-c3ccc(OCCN4CCCC4)cc3)sc2c1` (stereo unspecified), for which the melting point was in the range of 58 to 61 °C.

In the case of `CC(C)(C)OC(=O)N[C@@H](Cc1ccccc1)C(=O)N1CCN(C(c2ccc(F)cc2)c2ccc(F)cc2)CC1`, the melting point fell in the range of 54 to 74 °C.
